# Measurements reported in ChEMBL document CHEMBL4190400, “Identification of Potent Ebola Virus Entry Inhibitors with Suitable Properties for in Vivo Studies” (J Med Chem, 2018).
# Tests used:
# Ebolavirus [1] = assay: Antiviral activity against VSV pseudotyped Ebolavirus expressing M-GFP infected in African green monkey Vero E6 cells assessed as inhibition of viral infection pre-incubated for 2 hrs before infection and measured after 8 to 12 hrs by fluorescence microscopic method; type: functional, Vero C1008
# physchem = details: phosphate buffered saline, pH 7.4
# [2] = Stability of the compound in mouse plasma at 10 uM assessed as compound remaining after 4 hrs by LC-MS/MS analysis; type: ADME, cell-free; details: read-out: Stability
# in vitro = details: mouse, plasma
# [3] = Half life in mouse liver microsomes at 1 uM after 60 mins in presence of NADPH by LC-MS/MS analysis; type: ADME, microsome
# [4] = Half life in mouse liver microsomes at 1 uM after 60 mins in presence of NADPH and ritonavir by LC-MS/MS analysis; type: ADME, microsome; details: with ritonavir (concentration not stated)
# Ebolavirus [5] = assay: Antiviral activity against recombinant VSV pseudotyped Ebolavirus expressing M-GFP infected in African green monkey Vero E6 cells assessed as inhibition of viral infection pre-incubated for 2 hrs before infection and measured after 8 to 12 hrs in presence of 50% NHS by fluorescence microscopic method; type: functional, Vero C1008; details: Orthoebolavirus, Vero C1008
# [6] = Tmax in mouse at 50 mg/kg, po administered via gavage cotreated with 50 mg/kg ritonavir; type: ADME, organism-based; details: in vivo
# [7] = Half life in human liver microsomes at 1 uM after 60 mins in presence of NADPH by LC-MS/MS analysis; type: ADME, microsome
# [8] = Half life in mouse at 50 mg/kg, po administered via gavage cotreated with 50 mg/kg ritonavir; type: ADME, organism-based; details: in vivo
# [9] = Cmax in mouse at 50 mg/kg, po administered via gavage cotreated with 50 mg/kg ritonavir; type: ADME, organism-based; design: dose 50 mg/kg, route oral; details: in vivo
# [10] = AUClast in mouse at 50 mg/kg, po administered via gavage cotreated with 50 mg/kg ritonavir; type: ADME, organism-based; design: dose 50 mg/kg, route oral, time 0 - last; details: in vivo
# [11] = Clearance in mouse at 50 mg/kg, po administered via gavage cotreated with 50 mg/kg ritonavir; type: ADME, organism-based; details: in vivo
# [12] = Concentration in mouse plasma at 50 mg/kg, po administered via gavage cotreated with 50 mg/kg ritonavir; type: ADME, organism-based; details: in vivo
# Ebolavirus [13] = assay: Antiviral activity against Ebolavirus isolate Makona infected in human HeLa cells assessed as inhibition of viral infection pretreated for 2 hrs before viral infection and measured after 48 hrs by EboV GP immunostaining based method; type: functional, cell-based; details: Orthoebolavirus
SMILES,"IC50 (Ebolavirus [1]; Orthoebolavirus, Vero C1008) [nM]",also measured
O=C(CC1CCC(F)(F)CC1)NCC(=O)N1CCN(Cc2cc(Cl)cc(F)c2O)CC1,2800,–
COC(=O)c1ccc(COc2ccc(C#N)cc2CN2CCN(C(=O)CNC(=O)CC34CC5CC(CC(C5)C3)C4)CC2)cc1,50,–
O=C(CC12CC3CC(CC(C3)C1)C2)NCC(=O)N1CCN(Cc2cc(Cl)cc(Cl)c2Cl)CC1,430,–
O=C(CC12CC3CC(C1)CC(c1ccccc1)(C3)C2)NCC(=O)N1CCN(Cc2ccccc2OCc2ccc(Br)cc2)CC1,700,–
O=C(CC12CC3CC(CC(C3)C1)C2)NCC(=O)N1CCN(Cc2cc(F)c(F)cc2Cl)CC1,1450,–
COC(=O)c1ccc(COc2ccccc2CN2CCN(C(=O)CNC(=O)CC3CCC(F)(F)CC3)CC2)cc1,50,–
O=C(CC12CC3CC(CC(C3)C1)C2)NCC(=O)N1CCN(Cc2cc(Cl)ccc2F)CC1,360,–
O=C(CC12CC3CC(CC(C3)C1)C2)NCC(=O)N1CCN(Cc2ccccc2OCc2ccc(Br)cc2)CC1,220,–
COC(=O)c1ccc(COc2ccc(OC)cc2CN2CCN(C(=O)CNC(=O)CC34CC5CC(CC(C5)C3)C4)CC2)cc1,1400,–
CN(C)S(=O)(=O)c1ccc(COc2ccccc2CN2CCN(C(=O)CNC(=O)CC34CC5CC(CC(C5)C3)C4)CC2)cc1,400,–
O=C(CC1CCC(F)(F)CC1)NCC(=O)N1CCN(Cc2cc(Br)ccc2O)CC1,790,–
COC(=O)c1ccc(COc2ccc(Cl)cc2CN2CCN(C(=O)CNC(=O)C(F)(F)C(F)F)CC2)cc1,160,–
COC(=O)c1ccc(COc2ccccc2CN2CCN(C(=O)CNC(=O)CC3CC(F)(F)C3)CC2)cc1,300,–
Nc1ccc(Cl)cc1C(=O)N1CCN(C(=O)CNC(=O)C2CC23CCC(F)(F)CC3)CC1 (racemic),> 5000,–
[2H]C([2H])(c1cc(Cl)ccc1N)N1CCN(C(=O)CNC(=O)C2CC23CCC(F)(F)CC3)CC1 (racemic),–,IC50 (Ebolavirus [1]; vero c1008): 94 nM
COC(=O)c1ccc(/C=C/c2ccccc2CN2CCN(C(=O)CNC(=O)CC34CC5CC(CC(C5)C3)C4)CC2)cc1,1500,–
O=C(CC12CC3CC(CC(C3)C1)C2)NCC(=O)N1CCN(Cc2ccccc2OCc2ccc(-c3ncco3)cc2)CC1,270,"solubility kinetic (physchem): 5 µM; remaining at 4 h, 10 µM [2]: 37%; fraction unbound at 6 h (in vitro): 0.003; half-life at 1 µM [3]: 1 min"
NC(=O)c1ccc(COc2ccccc2CN2CCN(C(=O)CNC(=O)CC34CC5CC(CC(C5)C3)C4)CC2)cc1,700,–
CC1(CC(=O)NCC(=O)N2CCN(Cc3ccccc3OCc3ccc(Br)cc3)CC2)CCCCC1,520,–
CC(=O)Nc1ccc(Cl)cc1CN1CCN(C(=O)CNC(=O)CC23CC4CC(CC(C4)C2)C3)CC1,950,–
COC(=O)c1ccc(COc2ccc(F)cc2CN2CCN(C(=O)CNC(=O)CC34CC5CC(CC(C5)C3)C4)CC2)cc1,1.4,–
CS(=O)(=O)c1ccc(COc2ccc(Cl)cc2CN2CCN(C(=O)CNC(=O)CC3CCC(F)(F)CC3)CC2)cc1,–,"half-life at 1 µM [4]: > 120 min; remaining at 4 h, 10 µM [2]: 30%; IC50 (Ebolavirus [5]): 38 nM"

SMILES,"IC50 (Ebolavirus [1]; Orthoebolavirus, Vero C1008) [nM]",also measured
COC(=O)c1ccc(COc2ccc(Br)cc2CN2CCN(C(=O)CNC(=O)CC34CC5CC(CC(C5)C3)C4)CC2)cc1,9,–
Nc1ccc(C2CC2)cc1CN1CCN(C(=O)CNC(=O)C2CC23CCC(F)(F)CC3)CC1 (racemic),4200,–
COC(=O)c1ccc(CCc2ccccc2CN2CCN(C(=O)CNC(=O)CC34CC5CC(CC(C5)C3)C4)CC2)cc1,20,–
O=C(CC1CCC(F)(F)CC1)NCC(=O)N1CCN(Cc2cc(Cl)ccc2NC(=O)C2CC2)CC1,3500,–
COC(=O)c1ccc(COc2ccc(Cl)cc2CN2CCN(C(=O)CNC(=O)CC34CC5CC(CC(C5)C3)C4)CC2)cc1,1.1,–
Nc1ccc(Cl)cc1CN1CCN(C(=O)CNC(=O)C2CC23CCC3)CC1 (racemic),2500,–
Nc1ccc(Cl)cc1CN1CCN(C(=O)CNC(=O)C2CC23CCC(F)(F)CC3)CC1 (racemic),100,–
NC(=O)c1ccc(Cl)cc1CN1CCN(C(=O)CNC(=O)CC23CC4CC(CC(C4)C2)C3)CC1,1900,–
O=C(NCC(=O)N1CCN(Cc2cc(Cl)ccc2O)CC1)C1CC12CCC(F)(F)CC2 (racemic),180,–
O=C(CC12CC3CC(CC(Br)(C3)C1)C2)NCC(=O)N1CCN(Cc2ccccc2OCc2ccc(Br)cc2)CC1,600,–
O=C(CC12CC3(F)CC(F)(CC(F)(C3)C1)C2)NCC(=O)N1CCN(Cc2ccccc2OCc2ccc(Br)cc2)CC1,200,half-life at 1 µM [3]: 1 min
CCC1(CC)CC1C(=O)NCC(=O)N1CCN(Cc2cc(Cl)ccc2N)CC1 (racemic),160,–
CNS(=O)(=O)c1ccc(COc2ccccc2CN2CCN(C(=O)CNC(=O)CC34CC5CC(CC(C5)C3)C4)CC2)cc1,300,–
O=C(CC1CCC(F)(F)CC1)NCC(=O)N1CCN(Cc2cc(Cl)ccc2NS(=O)(=O)C2CC2)CC1,2200,–
Nc1ccc(Br)cc1CN1CCN(C(=O)CNC(=O)CC2CCC(F)(F)CC2)CC1,1740,–
COC(=O)c1ccc(COc2ccc(C)cc2CN2CCN(C(=O)CNC(=O)CC34CC5CC(CC(C5)C3)C4)CC2)cc1,12,–
O=C(CC12CC3CC(CC(C3)C1)C2)NCC(=O)N1CCN(Cc2cc(Br)ccc2Cl)CC1,2200,–
O=C(CC12CC3CC(C1)CC(c1ccc(O)c([N+](=O)[O-])c1)(C3)C2)NCC(=O)N1CCN(Cc2ccccc2OCc2ccc(Br)cc2)CC1,600,–
O=C(CC1CCC(F)(F)CC1)NCC(=O)N1CCN(Cc2cc(Cl)ccc2O)CC1,470,–
COC(=O)c1ccc(COc2ccccc2CN2CCN(C(=O)CNC(=O)CC3(C)CCCCC3)CC2)cc1,80,–
"[2H]C([2H])(c1cc(Cl)ccc1N)N1CCN(C(=O)CNC(=O)C2CC23CCC(F)(F)CC3)CC1 (single isomer, unassigned; (-))",–,"solubility kinetic (physchem): 78 µM; half-life at 1 µM [4]: 91 min; IC50 (Ebolavirus [1]; vero c1008): 51 nM; Tmax [6]: 102 min; remaining at 4 h, 10 µM [2]: 88%; fraction unbound at 6 h (in vitro): 0.121; half-life at 1 µM [7]: 16 min; half-life [8]: 192 min; IC50 (Ebolavirus [5]): 163 nM; Cmax [9]: 19.5 µM; AUC(0-t) [10]: 121 µM·h; CL/F [11]: 15.5 mL/min/kg; half-life at 1 µM [3]: 3 min; concentration [12]: 2 µM"
O=C(CC12CC3CC(CC(C3)C1)C2)NCC(=O)N1CCN(Cc2cc(Br)ccc2O)CC1,500,–

SMILES,"IC50 (Ebolavirus [1]; Orthoebolavirus, Vero C1008) [nM]",also measured
COC(=O)c1ccc(Oc2cc(Cl)cc(CN3CCN(C(=O)CNC(=O)CC45CC6CC(CC(C6)C4)C5)CC3)c2)cc1,16,–
O=C(CC12CC3CC(CC(C3)C1)C2)NCC(=O)N1CCN(Cc2c(F)ccc(Cl)c2F)CC1,1350,–
Nc1ccc(Cl)cc1CN1CCN(C(=O)CNC(=O)C2CC23CCCC3)CC1 (racemic),240,–
O=C(CC12CC3CC(CC(C3)C1)C2)NCC(=O)N1CCN(Cc2cc(Cl)ccc2O)CC1,200,–
O=C(CC12CC3CC(CC(Cl)(C3)C1)C2)NCC(=O)N1CCN(Cc2ccccc2OCc2ccc(Br)cc2)CC1,500,–
O=C(CC12CC3CC(CC(C3)C1)C2)NCC(=O)N1CCN(Cc2cc(Cl)cc(F)c2F)CC1,670,–
[2H]C([2H])(c1cc(Cl)ccc1N)N1CCN(C(=O)CNC(=O)C2CC23CCC(F)(F)CC3)CC1 (stereo in doubt; 3-19),–,IC50 (Ebolavirus [1]; vero c1008): 180 nM
COC(=O)c1ccc(COc2ccc(Cl)cc2CN2CCN(C(=O)CNC(=O)CC3CCC(F)(F)CC3)CC2)cc1,15,–
NS(=O)(=O)c1ccc(COc2ccccc2CN2CCN(C(=O)CNC(=O)CC34CC5CC(CC(C5)C3)C4)CC2)cc1,350,–
COC(=O)c1ccc(COc2ccccc2CN2CCN(C(=O)CNC(=O)CC34CC5CC(C3)CC(C(=O)O)(C5)C4)CC2)cc1,> 2000,–
O=C(CC12CC3CC(CC(C3)C1)C2)NCC(=O)N1CCN(Cc2cc(Br)ccc2F)CC1,1200,–
COC(=O)c1cccc(-c2ccc(Cl)cc2CN2CCN(C(=O)CNC(=O)CC34CC5CC(CC(C5)C3)C4)CC2)c1,250,–
N#Cc1ccc(Br)cc1CN1CCN(C(=O)CNC(=O)CC23CC4CC(CC(C4)C2)C3)CC1,310,–
O=C(CC12CC3CC(CC(C3)C1)C2)NCC(=O)N1CCN(Cc2cc(Cl)ccc2C(F)(F)F)CC1,> 2000,–
O=C(CC12CC3CC(CC(O)(C3)C1)C2)NCC(=O)N1CCN(Cc2ccccc2OCc2ccc(Br)cc2)CC1,500,–
O=C(CC1CCC(F)(F)CC1)NCC(=O)N1CCN(Cc2cc(Cl)cc(Cl)c2O)CC1,3600,–
O=C(CC12CC3CC(CC(C3)C1)C2)NCC(=O)N1CCN(Cc2cc(Cl)c(F)cc2F)CC1,370,–
Nc1ccc(Cl)cc1CN1CCN(C(=O)CNC(=O)CC23CC4CC(CC(C4)C2)C3)CC1,90,–
Nc1ccc(Cl)cc1CN1CCN(C(=O)CNC(=O)CC2CCC(F)(F)CC2)CC1,340,"solubility kinetic (physchem): > 100 µM; remaining at 4 h, 10 µM [2]: 94%; fraction unbound at 6 h (in vitro): 0.131"
COC(=O)c1ccc(COc2ccc(F)cc2CN2CCN(C(=O)CNC(=O)CC3CCC(F)(F)CC3)CC2)cc1,18,–
COC(=O)c1ccc(COc2ccccc2CN2CCN(C(=O)CNC(=O)CC34CC5CC(CC(C5)C3)C4)CC2)cc1,13,solubility kinetic (physchem): 5.3 µM; EC50 (Ebolavirus [13]): 160 nM; half-life at 1 µM [7]: 1.2 min; IC50 (Ebolavirus [5]): 64 nM; half-life at 1 µM [3]: 1 min
